From US20250163051A1, “PYRIMIDO AROMATIC RING COMPOUND AND USE THEREOF IN DRUG” (SUNSHINE LAKE PHARMA CO., LTD., priority 2022, published 2025) come the findings set out here.

Molecules are shown by their SMILES. pEC50: −log10 of the molar value. A value given as a limit tells only on which side of the number the result lay.

One series concerns the target T1, hTLR7 (Homo sapiens, UniProt Q9NYK1).
T1 construct: expressed in transfected cells; host or cells: HEK-Blue hTLR7 cells
T1 sequence (Q9NYK1 27-1049): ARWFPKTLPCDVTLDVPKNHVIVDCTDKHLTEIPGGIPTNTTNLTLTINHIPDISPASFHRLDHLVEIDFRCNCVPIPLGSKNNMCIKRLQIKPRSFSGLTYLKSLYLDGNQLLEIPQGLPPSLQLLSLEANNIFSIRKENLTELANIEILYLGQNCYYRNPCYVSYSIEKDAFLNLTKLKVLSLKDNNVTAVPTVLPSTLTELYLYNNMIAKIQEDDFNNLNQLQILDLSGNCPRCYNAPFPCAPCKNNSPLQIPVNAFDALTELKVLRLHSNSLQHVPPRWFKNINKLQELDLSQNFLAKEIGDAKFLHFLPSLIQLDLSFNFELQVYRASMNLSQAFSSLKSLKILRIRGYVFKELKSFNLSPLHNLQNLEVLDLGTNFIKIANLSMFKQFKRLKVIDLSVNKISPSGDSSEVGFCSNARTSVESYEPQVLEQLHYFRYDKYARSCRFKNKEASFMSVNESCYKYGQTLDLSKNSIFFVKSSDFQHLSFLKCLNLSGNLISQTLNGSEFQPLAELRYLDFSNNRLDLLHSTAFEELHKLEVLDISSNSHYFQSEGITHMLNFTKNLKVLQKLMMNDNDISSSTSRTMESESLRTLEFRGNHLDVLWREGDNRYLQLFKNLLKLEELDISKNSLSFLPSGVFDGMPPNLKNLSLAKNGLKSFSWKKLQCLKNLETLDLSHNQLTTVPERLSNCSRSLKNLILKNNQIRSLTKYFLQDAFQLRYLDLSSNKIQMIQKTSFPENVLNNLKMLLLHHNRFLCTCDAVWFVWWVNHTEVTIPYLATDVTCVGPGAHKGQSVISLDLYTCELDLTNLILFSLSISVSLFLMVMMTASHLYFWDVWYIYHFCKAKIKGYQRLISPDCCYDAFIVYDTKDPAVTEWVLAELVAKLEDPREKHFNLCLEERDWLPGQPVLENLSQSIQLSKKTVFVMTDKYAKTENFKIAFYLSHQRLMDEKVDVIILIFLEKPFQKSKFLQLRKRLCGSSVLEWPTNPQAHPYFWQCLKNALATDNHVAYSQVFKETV
In words: Agonistic activity on human TLR7 in HEK-Blue hTLR7 cells (QUANTI-Blue). The note with it: 24 h incubation, OD650, read-out: hTLR 7 EC50. Format: cell-based.

The next series concerns the target T2, hTLR8 (Homo sapiens, UniProt Q9NR97).
T2 construct: expressed in transfected cells; host or cells: HEK-Blue hTLR8 cells
T2 sequence (Q9NR97 27-1041): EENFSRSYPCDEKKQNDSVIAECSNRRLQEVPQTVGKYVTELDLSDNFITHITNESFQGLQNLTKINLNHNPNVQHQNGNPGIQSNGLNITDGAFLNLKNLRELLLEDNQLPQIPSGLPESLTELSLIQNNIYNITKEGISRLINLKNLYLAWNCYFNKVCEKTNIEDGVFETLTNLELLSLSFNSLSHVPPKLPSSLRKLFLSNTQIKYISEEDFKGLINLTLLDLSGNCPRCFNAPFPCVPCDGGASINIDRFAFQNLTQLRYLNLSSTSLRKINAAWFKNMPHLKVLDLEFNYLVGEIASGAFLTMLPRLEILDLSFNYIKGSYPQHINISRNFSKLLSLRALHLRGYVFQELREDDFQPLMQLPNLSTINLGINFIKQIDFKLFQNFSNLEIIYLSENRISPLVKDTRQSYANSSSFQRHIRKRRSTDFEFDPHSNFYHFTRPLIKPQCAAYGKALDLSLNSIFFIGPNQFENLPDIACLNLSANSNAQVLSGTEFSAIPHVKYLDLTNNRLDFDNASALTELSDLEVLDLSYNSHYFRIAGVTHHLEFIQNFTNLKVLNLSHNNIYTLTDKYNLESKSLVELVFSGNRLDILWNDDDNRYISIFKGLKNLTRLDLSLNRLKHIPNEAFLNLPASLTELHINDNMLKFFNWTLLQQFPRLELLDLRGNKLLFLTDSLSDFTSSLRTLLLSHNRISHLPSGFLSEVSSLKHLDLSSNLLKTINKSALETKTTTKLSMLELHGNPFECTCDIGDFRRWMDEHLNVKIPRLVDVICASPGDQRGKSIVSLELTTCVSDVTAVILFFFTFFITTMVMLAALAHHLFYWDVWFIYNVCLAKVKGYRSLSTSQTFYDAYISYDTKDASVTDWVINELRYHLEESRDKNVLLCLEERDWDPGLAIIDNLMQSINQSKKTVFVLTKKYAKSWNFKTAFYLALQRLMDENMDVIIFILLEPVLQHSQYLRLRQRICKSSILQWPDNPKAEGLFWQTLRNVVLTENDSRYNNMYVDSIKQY
Kind of series: Agonistic activity on human TLR8 in HEK-Blue hTLR8 cells (QUANTI-Blue). The note with it: 24 h incubation, OD650, read-out: hTLR 8 EC50. The class given is cell-based.

The nature of the next series: in vitro. The note with it: human.

Description for in vitro: Purpose: HEK-Blue™ hTLR7 and HEK-Blue™ hTLR8 cells were used to detect the agonist and cytotoxic activities of compounds against hTLR7 and hTLR8.
The experimental steps were as shown below: • 1) Preparation of compound: The compound was prepared into a 20 mM stock solution with DMSO, and then the stock solution was diluted 3-fold in a gradient and added to a 96-well plate, for a total of 10 concentrations, with duplicate wells for each concentration. For negative control wells, 0.5 μL DMSO was added to each well. The final DMSO concentration was 0.5%. • 2) HEK-Blue™ hTLR7 or HEK-Blue™ hTLR8 cells were suspended in culture medium and then seeded into 96-well plates containing compounds at a cell count of 50,000 per well. The compounds and cells were incubated for 24 h at 37° C., 5% Co2. • 3) QUANTI-Blue was used for the detection solution: to a mixture of 1 mL of QB reagent and 1 mL of QB buffer was added 98 mL of sterile water, the mixture was mixed and dissolved, and then placed at room temperature for 10 min. • 4) Activity test of the compound: 20 μL of the culture supernatant in step 2) was added to each well of a 96-well plate containing 180 μL of QUANTI-Blue detection solution. After incubation at 37° C. for 1 h, the absorbance at 650 nm (OD650) was detected using a multifunctional microplate reader Flextation III. • 5) Detection of cell activity: The chemiluminescent signal (RLU) was detected using the multifunctional microplate reader Flextation III according to the instructions of Celltiter-Glo. • 6) Data analysis
Detection of cell activity: The calculation formula for cell activity % is as follows.
The cell activity % values were analyzed using GraphPad Prism software, and the compound dose-effect curves were fitted to calculate the CC50 values of the compounds.
Cell activity %=RLU compound/RLU DMSO Control*100%

A word on the pEC50: it is the EC50 on a negative log10 scale, so that one unit is a factor of ten. For the compound `CCCC[C@](C)(CO)Nc1nc(N)nc2cc(-c3cc(=O)n(C)cc3CN3CCNCC3)cnc12` [Example 5], the figures for the negative logarithm of the EC50 (pEC50) at hTLR7 and on hTLR8 were less than 4.00 and 5.57, respectively. For the same compound, the CC50 at 24 h in the series “in vitro” is more than 100 µM.
